Patent publication US9963448B2, “Bicyclic inhibitors of PAD4” (Padlock Therapeutics, Inc., priority 2015, dated 2018)
Like-named read-outs stand apart in the source and are kept apart here.

Assays:
hPAD4 = hPAD4 (Homo sapiens, UniProt Q9UM07); experiment: hPAD4 RFMS (RapidFire mass spectrometry) PAD4 inhibition assay; type: biochemical; conditions: hPAD4 enzyme, RFMS readout;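 on hPAD4 RFMS pIC50: grade E means pIC50 at most 4 and F means pIC50 4.0 to 5.0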
Protocol: (§1) Compounds of the present invention were assayed as inhibitors of PAD4 using the assay protocol described below.
(§2) Compound stock solutions were stored at RT. […] Final assay conditions were as follows:
(§3) Total incubation time: 65 mins at 37° C.
(§4) Stop solution: 40 μl 5% TCA in ACN
(§5) The compound numbers correspond to the compound numbers in Table 1. […] The term pIC50=−log(IC50). […] “NA” stands for “not assayed.”

mPAD4 = mPAD4 (Mus musculus, UniProt Q9Z183); experiment: mPAD4 RFMS PAD4 inhibition assay; type: biochemical; conditions: mPAD4, RFMS readout;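 on mPAD4 RFMS pIC50: grade E means pIC50 at most 4 and F means pIC50 4.0 to 5.0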
Chain of mPAD4 (Q9Z183 whole entry): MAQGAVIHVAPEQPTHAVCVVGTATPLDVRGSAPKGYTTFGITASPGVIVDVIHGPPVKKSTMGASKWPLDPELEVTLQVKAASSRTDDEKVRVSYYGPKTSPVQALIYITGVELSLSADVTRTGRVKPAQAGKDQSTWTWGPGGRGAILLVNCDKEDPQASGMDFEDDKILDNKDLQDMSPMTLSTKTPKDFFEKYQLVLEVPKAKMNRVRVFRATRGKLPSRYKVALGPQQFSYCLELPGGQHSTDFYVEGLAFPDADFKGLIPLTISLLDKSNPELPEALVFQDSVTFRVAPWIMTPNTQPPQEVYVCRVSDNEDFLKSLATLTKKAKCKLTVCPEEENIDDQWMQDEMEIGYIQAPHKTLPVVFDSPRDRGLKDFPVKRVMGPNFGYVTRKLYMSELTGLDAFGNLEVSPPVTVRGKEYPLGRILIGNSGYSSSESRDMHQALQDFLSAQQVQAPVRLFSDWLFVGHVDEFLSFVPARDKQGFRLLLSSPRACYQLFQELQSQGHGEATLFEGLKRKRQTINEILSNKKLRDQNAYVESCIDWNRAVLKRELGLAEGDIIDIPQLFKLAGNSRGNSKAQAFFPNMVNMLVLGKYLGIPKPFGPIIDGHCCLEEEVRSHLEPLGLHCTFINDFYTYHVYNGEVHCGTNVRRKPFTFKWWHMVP
Protocol: as §1, §2, §3, §4, §5

[1] = pIC50=−log(IC50), read-out: hPAD4 RFMS pIC50 (converted)
[2] = pIC50=−log(IC50), read-out: mPAD4 RFMS pIC50 (converted)

Chain of hPAD4 (Q9UM07 whole entry): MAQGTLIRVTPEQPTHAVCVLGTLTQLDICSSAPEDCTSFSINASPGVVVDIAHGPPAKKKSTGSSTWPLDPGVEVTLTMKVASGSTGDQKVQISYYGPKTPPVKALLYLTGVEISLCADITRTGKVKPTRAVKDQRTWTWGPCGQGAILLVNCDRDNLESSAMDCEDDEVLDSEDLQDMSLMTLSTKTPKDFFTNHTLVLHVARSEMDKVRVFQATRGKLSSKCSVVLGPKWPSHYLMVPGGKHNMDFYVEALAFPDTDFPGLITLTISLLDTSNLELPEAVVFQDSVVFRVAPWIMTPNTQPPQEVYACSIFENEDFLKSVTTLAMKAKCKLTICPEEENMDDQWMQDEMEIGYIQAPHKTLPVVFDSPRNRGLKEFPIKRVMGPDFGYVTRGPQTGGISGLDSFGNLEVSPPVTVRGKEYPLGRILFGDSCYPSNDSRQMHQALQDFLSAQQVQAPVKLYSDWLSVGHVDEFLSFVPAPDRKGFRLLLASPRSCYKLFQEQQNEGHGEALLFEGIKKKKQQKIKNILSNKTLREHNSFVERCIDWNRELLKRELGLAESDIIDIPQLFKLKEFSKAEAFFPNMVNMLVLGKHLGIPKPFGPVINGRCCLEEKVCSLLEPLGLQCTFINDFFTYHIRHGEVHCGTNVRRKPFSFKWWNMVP

Structure (SMILES)	IC50 (hPAD4; [1])	IC50 (hPAD4; read-out: hPAD4 RFMS IC50)	IC50 (mPAD4; [2])	IC50 (mPAD4; read-out: mPAD4 RFMS IC50)	hPAD4 RFMS pIC50 (hPAD4; pIC50=−log(IC50))	mPAD4 RFMS pIC50 (mPAD4; pIC50=−log(IC50))
COc1cc(C(=O)N2CC3CCC2C(N)C3)cc2nc(-c3cc4cccnc4n3CC3CC3)n(C)c12 (centres unmarked) [Compound I-129]	1000 to 10000 nM	1000 to 5000 nM	1000 to 10000 nM	1000 to 5000 nM		
COc1ccc2cc(-c3nc4cc(C(=O)N5CC[C@H](OC)[C@H](N)C5)ccc4n3C)n(CC3CC3)c2n1 [Compound I-130]	< 1000 nM	< 1000 nM	1000 to 10000 nM	1000 to 5000 nM		
Cn1c(-c2cc3cccnc3n2CC2CC2)nc2cc(C(=O)N3CCC[C@@H](N)C3)cc(S(C)(=O)=O)c21 [Compound I-131, (3R)-1-{2-[1-(cyclopropylmethyl)-1H-pyrrolo[2,3-b]pyridin-2-yl]-7-methanesulfonyl-1-methyl-1H-1,3-benzodiazole-5-carbonyl}piperidin-3-amine]	1000 to 10000 nM	5000 to 10000 nM	10000 to 100000 nM	> 10000 nM		
COc1cc(C(=O)N2CCC[C@@H](N)C2)cc2nc(-c3cc4cc(C#N)cnc4n3CC3CC3)n(C)c12 [Compound I-132]	< 1000 nM	< 1000 nM	1000 to 10000 nM	1000 to 5000 nM		
CO[C@@H]1CCN(C(=O)c2cc(OC(F)F)c3c(c2)nc(-c2cc4cccnc4n2CC2CC2)n3C)C[C@@H]1N [Compound I-133]		> 10000 nM		1000 to 5000 nM	F (pIC50 of 4.0-5.0)	G (pIC50 of 5.0-6.0)
CO[C@H]1CCN(C(=O)c2cc(OC(F)F)c3c(c2)nc(-c2cc4cccnc4n2CC2CC2)n3C)C[C@H]1N [Compound I-134]	1000 to 10000 nM	1000 to 5000 nM	< 1000 nM	< 1000 nM		
CCn1c(-c2nc3cc(C(=O)N4CCC[C@@H](N)C4)cc(OC)c3n2C)cc2ccc(OC)nc21 [Compound I-135]	< 1000 nM	< 1000 nM	< 1000 nM	< 1000 nM		
COCCn1c(-c2nc3cc(C(=O)N4CCC[C@@H](N)C4)cc(OC)c3n2C)cc2cccnc21 [Compound I-137]	1000 to 10000 nM	1000 to 5000 nM	1000 to 10000 nM	1000 to 5000 nM		
CCn1c(-c2nc3cc(C(=O)N4C[C@@H](N)CC[C@H]4C)cc(OC)c3n2C)cc2cccnc21 [Compound I-138]	< 1000 nM	< 1000 nM	< 1000 nM	< 1000 nM		
CCn1c(-c2nc3cc(C(=O)N4C[C@H]5CC[C@@H]4[C@@H]5N)cc(OC)c3n2C)cc2ccc(OC)nc21 [Compound I-139]	< 1000 nM	< 1000 nM	< 1000 nM	< 1000 nM		
CCn1c(-c2nc3cc(C(=O)N4C[C@@H]5CC[C@H]4[C@H]5N)cc(OC)c3n2C)cc2ccc(OC)nc21 [Compound I-140]	1000 to 10000 nM	5000 to 10000 nM	10000 to 100000 nM	> 10000 nM		
COc1cc(C(=O)N2CC[C@H](OC)[C@H](N)C2)cc2nc(-c3cc4cccnc4n3CC3CC3)n(C)c12 [Compound I-142]	1000 to 10000 nM	1000 to 5000 nM	1000 to 10000 nM	1000 to 5000 nM		
COc1cc(C(=O)N2CCC[C@@H](N)C2)cc2nc(-c3cc4cccnc4n3CCF)n(C)c12 [Compound I-146]	1000 to 10000 nM	1000 to 5000 nM	< 1000 nM	< 1000 nM		
CCCn1c(-c2nc3cc(C(=O)N4CCC[C@@H](N)C4)cc(OC)c3n2C)cc2cccnc21 [Compound I-149]	< 1000 nM	< 1000 nM	< 1000 nM	< 1000 nM		
CCn1c(-c2nc3cc(C(=O)N4CCC[C@@H](N)C4)cc(F)c3n2CC)cc2cccnc21 [Compound I-151]	1000 to 10000 nM	1000 to 5000 nM	1000 to 10000 nM	5000 to 10000 nM		
CCn1c(-c2nc3cc(C(=O)N4C[C@H]5CC[C@@H]4[C@@H]5N)ccc3n2C)cc2cccnc21 [Compound I-152]	1000 to 10000 nM	1000 to 5000 nM	1000 to 10000 nM	5000 to 10000 nM		

Structure (SMILES)	IC50 (hPAD4; [1])	IC50 (hPAD4; read-out: hPAD4 RFMS IC50)	IC50 (mPAD4; [2])	IC50 (mPAD4; read-out: mPAD4 RFMS IC50)	hPAD4 RFMS pIC50 (hPAD4; pIC50=−log(IC50))	mPAD4 RFMS pIC50 (mPAD4; pIC50=−log(IC50))
CCCn1c(-c2nc3cc(C(=O)N4C[C@H]5CC[C@@H]4[C@@H]5N)cc(OC)c3n2C)cc2cccnc21 [Compound I-154]	< 1000 nM	< 1000 nM	< 1000 nM	< 1000 nM		
CCn1c(-c2nc3cc(C(=O)N4C[C@H]5CC[C@@H]4[C@@H]5N)cc(OC)c3n2C[C@H]2C[C@@](C)(O)C2)cc2cccnc21 [Compound I-155]	< 1000 nM	< 1000 nM	< 1000 nM	< 1000 nM		
COc1cc(C(=O)N2C[C@H]3CC[C@@H]2[C@@H]3N)cc2nc(-c3cc4cccnc4n3CCF)n(C)c12 [Compound I-157]	1000 to 10000 nM	1000 to 5000 nM	1000 to 10000 nM	1000 to 5000 nM		
CCn1c(-c2nc3cc(C(=O)N4C[C@H]5CC[C@@H]4[C@@H]5N)cc(OC)c3n2C)cc2cccnc21 [Compound I-159]	< 1000 nM	< 1000 nM	< 1000 nM	< 1000 nM		
CCn1c(-c2nc3cc(C(=O)N4C[C@H]5CC[C@@H]4[C@@H]5N)cc(OC)c3n2C)cc2ccc(C)nc21 [Compound I-160]	< 1000 nM	< 1000 nM	< 1000 nM	< 1000 nM		
CCn1c(-c2nc3cc(C(=O)N4CCC[C@@H](N)C4)cc(OC)c3n2C)cc2ccc(C)nc21 [Compound I-161]	< 1000 nM	< 1000 nM	< 1000 nM	< 1000 nM		
COc1cc(C(=O)N2C[C@H]3C[C@H](O)[C@@H]2[C@@H]3N)cc2nc(-c3cc4cccnc4n3CC3CC3)n(C)c12 [Compound I-162, (1S,4R,6S,7R)-7-Amino-2-{2-[1-(cyclopropylmethyl)-1H-pyrrolo[2,3-b]pyridin-2-yl]-7-methoxy-1-methyl-1H-1,3-benzodiazole-5-carbonyl}-2-azabicyclo[2.2.1]heptan-6-ol]	< 1000 nM	< 1000 nM	1000 to 10000 nM	1000 to 5000 nM		
CCn1c(-c2nc3cc(C(=O)N4CCC[C@@H](N)C4)cc(OC)c3n2C[C@H]2C[C@@](C)(OC)C2)cc2cccnc21 [Compound I-163]	1000 to 10000 nM	1000 to 5000 nM	< 1000 nM	< 1000 nM		
CCn1c(-c2nc3cc(C(=O)N4CCC[C@@H](N)C4)cc(F)c3n2C)cc2cccnc21 [Compound I-164]	1000 to 10000 nM	1000 to 5000 nM	1000 to 10000 nM	5000 to 10000 nM		
CCn1c(-c2nc3cc(C(=O)N4C[C@H]5CC[C@@H]4[C@@H]5N)cc(F)c3n2C)cc2cccnc21 [Compound I-165]	1000 to 10000 nM	1000 to 5000 nM	1000 to 10000 nM	1000 to 5000 nM		
Cn1c(-c2cc3cccnc3n2CC2CC2)nc2cc(C(=O)N3CCC[C@@H](N)C3)cc(F)c21 [Compound I-166]	< 1000 nM	< 1000 nM	1000 to 10000 nM	1000 to 5000 nM		
CCn1c(-c2nc3cc(C(=O)N4CCC[C@@H](N)C4)c(F)cc3n2C)cc2cccnc21 [Compound I-171]	1000 to 10000 nM	5000 to 10000 nM	1000 to 10000 nM	5000 to 10000 nM		
Cn1c(-c2cc3cccnc3n2CC2CC2)nc2cc(C(=O)N3CCC[C@@H](N)C3)c(F)cc21 [Compound I-172]	1000 to 10000 nM	1000 to 5000 nM	1000 to 10000 nM	1000 to 5000 nM		
CCn1c(-c2nc3cc(C(=O)N4C[C@H]5CC[C@@H]4[C@@H]5N)cc(OC)c3n2CC2CCOCC2)cc2cccnc21 [Compound I-173]	< 1000 nM	< 1000 nM	1000 to 10000 nM	1000 to 5000 nM		
CCn1c(-c2nc3cc(C(=O)N4CCC[C@@H](N)C4)cc(OC)c3n2CC2CCOCC2)cc2cccnc21 [Compound I-174]	1000 to 10000 nM	1000 to 5000 nM	1000 to 10000 nM	1000 to 5000 nM		
CCn1c(-c2nc3cc(C(=O)N4C[C@H]5CC[C@@H]4[C@@H]5N)cc(OC)c3n2CCOC)cc2cccnc21 [Compound I-175]	< 1000 nM	< 1000 nM	1000 to 10000 nM	1000 to 5000 nM		
